Columns and labels:
mTOR kinase = molecular target: T1, mTOR kinase (Homo sapiens, UniProt P42345); assay: mTOR kinase TR-FRET assay; assay type: biochemical
T1 construct: purchased Millipore, US
Experimental: Compound inhibition for mTOR kinase was determined by homogeneous TR-FRET assay using ULight-p70 S6K (Thr 389) peptide as substrate. mTOR enzyme (Millipore, US; […]) was used in the assay. The reaction buffer was HEPES (50 mM, pH 7.5), EGTA (1 mM), and MnCl2 (3 mM). Test compound was pre-incubated with mTOR for 30 min followed by 50 nM ULight-p70 S6K (Thr 389) peptide along with ATP (20 μM).
After incubating the reaction mixture for 30 min, Eu-labeled anti-phospho-substrate antibody (1 nM, Perkin Elmer, USA) was added. Fluorescence emission at […] was measured upon excitation at 340 nm. The compound dilution was carried out in 100% DMSO followed by a buffer dilution. The kinase reaction was incubated for 1 h at rt followed by the addition of substrate-ATP mix and incubated at rt for 1 h. The reaction was terminated by the addition of EDTA followed by the addition of detection mix. IC50 values were determined using a sigmoidal dose response curve fit, GraphPad Prism® v5 software.

B-RAFV600E = molecular target: T2, B-RAFV600E (Homo sapiens, UniProt P15056, V600E); assay: B-RAFV600E radiometric assay; assay type: biochemical; conditions: read-out: Kinase assay B-Raf
T2 construct: purchased Millipore, USA 14-557
T2 sequence (P15056 416-766 V600E limits assumed): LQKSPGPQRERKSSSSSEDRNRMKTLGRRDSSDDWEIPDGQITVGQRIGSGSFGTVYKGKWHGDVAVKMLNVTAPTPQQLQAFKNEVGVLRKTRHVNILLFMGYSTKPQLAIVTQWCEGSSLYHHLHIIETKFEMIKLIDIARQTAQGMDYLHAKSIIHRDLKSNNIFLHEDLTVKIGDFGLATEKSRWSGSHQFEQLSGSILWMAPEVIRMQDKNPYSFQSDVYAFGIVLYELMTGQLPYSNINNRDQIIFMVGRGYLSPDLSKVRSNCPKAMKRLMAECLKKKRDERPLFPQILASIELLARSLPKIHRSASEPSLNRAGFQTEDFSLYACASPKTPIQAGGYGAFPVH
Experimental: Compound inhibition for B-RAFV600E was determined through radiometric assay using a BRAF enzyme (Catalog No. 14-557, Millipore, USA) and MEK-K97M protein as a substrate (Catalog No. 0785-0000-1, ProqQinase GmbH, Germany). The B-RAF kinase catalyzes the phosphorylation of MEK protein in the presence of gamma ATP (PLC-101, Jonaki, CCMB, Hyderabad), cold ATP and Mg^2+.
The phosphorylated protein product is detected by the scintillation counter Topcount® machine (Perkin Elmer). This assay has been adapted from the method previously reported by Yeh et al. (2007, Clinical Cancer Research; 13, 1576-1583). The assay measures the B-RAF mediated transfer of 32P from the gamma position of radiolabeled ATP onto MEK1-KD. The labeled phosphorylated protein was measured in MicroBeta® Trilux Counter (Perkin Elmer). The assay was validated with reference compounds RAF1 Kinase Inhibitor I and ZM 336372 inhibitor which are reported to be inhibitors of B-RAF enzyme (Lackey, 2000, Medicinal Chemistry Letters; 10(3):223-226; Kupcho, “Fluorescent High throughput kinase cascade assays for inhibitor characterization, RAF-MEK-ERK pathway, www.invitrogen.com, and Hall-Jackson, 1999, Chemical Biology; 6(8):559-568). B-RAF enzyme mixture (13 μL) was added to compound wells containing 2 μL of the NCE in 1% DMSO and incubated for 45 min at rt on a shaking incubator at 300 rpm. MEK-K97M (0.5 μg) and cold ATP to a final concentration of 5 μM, and hot ATP 0.1 μCi in a volume of 10 μL was added to each well and incubated for 2 h at rt on a shaking incubator at 300 rpm. The reaction was stopped by addition of […] (13 μL) containing ATP (1 mM: 495 μL 1N HCl and 5 μL 100 mM ATP). Aliquot (30 μL) was then transferred to the center of a 2 cm×2 cm P81 paper. P81 paper was washed 8×5 min each with ortho-phosphoric acid (0.5%). P81 papers are washed twice with acetone for […] Assay squares were allowed to dry for […] at 37° C. P81 paper are transferred to Optiplate™ (Perkin Elmer) and counted in a Topcount® counter (Perkin Elmer). Data was plotted against the compound concentration to generate dose-response curves and IC50 values were determined using a sigmoidal dose response curve fit GraphPad Prism® v5 software.

T1 sequence (P42345 1362-2549 limits assumed): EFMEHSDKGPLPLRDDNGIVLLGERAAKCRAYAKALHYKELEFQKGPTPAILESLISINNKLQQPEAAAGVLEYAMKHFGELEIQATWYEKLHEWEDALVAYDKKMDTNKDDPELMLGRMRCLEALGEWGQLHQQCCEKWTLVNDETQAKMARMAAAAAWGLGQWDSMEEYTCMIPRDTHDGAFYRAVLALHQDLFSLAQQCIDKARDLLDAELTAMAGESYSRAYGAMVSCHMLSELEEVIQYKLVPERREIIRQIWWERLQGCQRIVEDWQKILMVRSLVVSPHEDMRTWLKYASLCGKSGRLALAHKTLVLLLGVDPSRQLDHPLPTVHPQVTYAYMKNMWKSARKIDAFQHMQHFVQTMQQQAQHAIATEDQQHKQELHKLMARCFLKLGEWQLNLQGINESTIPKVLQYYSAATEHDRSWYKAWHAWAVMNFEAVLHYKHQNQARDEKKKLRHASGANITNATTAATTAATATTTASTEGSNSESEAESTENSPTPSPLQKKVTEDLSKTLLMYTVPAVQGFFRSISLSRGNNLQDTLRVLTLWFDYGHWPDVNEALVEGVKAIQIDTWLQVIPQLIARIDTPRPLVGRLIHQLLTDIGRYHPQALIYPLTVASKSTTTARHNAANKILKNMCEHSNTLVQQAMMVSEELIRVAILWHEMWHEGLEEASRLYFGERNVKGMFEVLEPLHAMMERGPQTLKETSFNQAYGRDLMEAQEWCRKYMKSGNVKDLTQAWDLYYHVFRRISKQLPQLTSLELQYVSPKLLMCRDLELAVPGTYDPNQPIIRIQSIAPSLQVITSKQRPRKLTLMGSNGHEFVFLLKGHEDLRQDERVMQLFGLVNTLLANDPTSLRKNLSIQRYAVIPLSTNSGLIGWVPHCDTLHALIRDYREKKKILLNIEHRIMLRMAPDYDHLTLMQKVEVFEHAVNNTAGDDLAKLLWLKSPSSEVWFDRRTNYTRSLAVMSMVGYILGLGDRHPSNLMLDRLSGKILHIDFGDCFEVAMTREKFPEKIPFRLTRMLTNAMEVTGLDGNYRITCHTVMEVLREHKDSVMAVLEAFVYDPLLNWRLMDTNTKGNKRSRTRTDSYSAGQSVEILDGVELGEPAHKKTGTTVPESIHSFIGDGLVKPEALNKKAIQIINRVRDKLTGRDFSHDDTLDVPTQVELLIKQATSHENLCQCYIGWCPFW

Row | Compound | IC50 (mTOR kinase) | IC50 (B-RAFV600E)
1 | CCCS(=O)(=O)Nc1cccc(-c2cc(OCCO)c3nc(-c4ccc(N)nc4)nc(N4CCOCC4)c3c2)c1F [Example 4, N-(3-(2-(6-aminopyridin-3-yl)-8-(2-hydroxyethoxy)-4-morpholinoquinazolin-6-yl)-2-fluorophenyl)propane-1-sulfonamide] | 100 to 1000 nM | 100 to 1000 nM
2 | COc1cc(-c2c(F)ccc(NS(=O)(=O)CCCF)c2F)cc2c(N3CCOCC3)nc(-c3cnc4[nH]ccc4c3)nc12 [Example 83] | 100 to 1000 nM | 1 to 100 nM
3 | COc1cc(-c2cccc(NS(=O)(=O)CCCF)c2F)cc2c(N3CCOCC3)nc(-c3ccc(NS(C)(=O)=O)cc3)nc12 [Example 126, 3-f1uoro-N-(2-fluoro-3-(8-methoxy-2-(4-(methylsulfonamido)phenyl)-4-morpholinoquinazolin-6-yl)phenyl)propane-1-sulfonamide] | 100 to 1000 nM | 100 to 1000 nM
4 | COc1cc(-c2cccc(NS(=O)(=O)CCCF)c2F)cc2c(N3CCOC[C@H]3C)nc(-c3cnc(N)cn3)nc12 [Example 143, (R)-N-(3-(2-(5-aminopyrazin-2-yl)-8-methoxy-4-(3-methylmorpholino)quinazolin-6-yl)-2-fluorophenyl)-3-fluoropropane-1-sulfonamide] | 100 to 1000 nM | 1 to 100 nM
5 | CCc1cc(-c2cccc(NS(=O)(=O)CCCF)c2F)cc2c(N3CCOC[C@H]3C)nc(-c3cnc(N)nc3)nc12 [Example 119, (R)-N-(3-(2-(2-aminopyrimidin-5-yl)-8-ethyl-4-(3-methylmorpholino)quinazolin-6-yl)-2-fluorophenyl)-3-fluoropropane-1-sulfonamide] | 100 to 1000 nM | 1 to 100 nM
6 | COc1cc(-c2cccc(NS(=O)(=O)c3ccc(F)cc3F)c2F)cc2c(N3CCOCC3)nc(-c3cnc(N)nc3)nc12 [Example 24, N-(3-(2-(2-aminopyrimidin-5-yl)-8-methoxy-4-morpholinoquinazolin-6-yl)-2-fluorophenyl)-2,4-difluorobenzenesulfonamide] | 100 to 1000 nM | 100 to 1000 nM
7 | CCCNc1ccc(-c2nc(N3CCOCC3)c3cc(-c4cccc(NS(=O)(=O)CCCF)c4F)cc(OC)c3n2)cn1 [Example 49, 3-fluoro-N-(2-fluoro-3-(8-methoxy-4-morpholino-2-(6-(propylamino)pyridin-3-yl)quinazolin-6-yl)phenyl)propane-1-sulfonamide] | 100 to 1000 nM | 1 to 100 nM
8 | COc1cc(-c2cccc(NS(=O)(=O)CCCF)c2F)cc2c(N3CCOCC3)nc(-c3cnc(N)nc3C)nc12 [Example 35, N-(3-(2-(2-amino-4-methylpyrimidin-5-yl)-8-methoxy-4-morpholinoquinazolin-6-yl)-2-fluorophenyl)-3-fluoropropane-1-sulfonamide] | 100 to 1000 nM | 1 to 100 nM
9 | CCCS(=O)(=O)Nc1cccc(-c2cc(OC)c3nc(-n4c(CO)nc5ccccc54)nc(N4CCOCC4)c3c2)c1F [Example 10, N-(2-fluoro-3-(2-(2-(hydroxymethyl)-1H-benzo[d]imidazol-1-yl)-8-methoxy-4-morpholinoquinazolin-6-yl)phenyl)propane-1-sulfonamide] | 100 to 1000 nM | 100 to 1000 nM
10 | COc1cc(-c2cccc(NS(=O)(=O)CCC(F)(F)F)c2F)cc2c(N3CCOCC3)nc(-c3ccc(N)nc3)nc12 [Example 31, N-(3-(2-(6-aminopyridin-3-yl)-8-methoxy-4-morpholinoquinazolin-6-yl)-2-fluorophenyl)-3,3,3-trifluoropropane-1-sulfonamide] | 100 to 1000 nM | 100 to 1000 nM
11 | C[C@@H]1COCCN1c1nc(-c2ccc(N)nc2)nc2c(N3CCCC3)cc(-c3cccc(NS(=O)(=O)CCCF)c3F)cc12 [Example 74, (R)-N-(3-(2-(6-aminopyridin-3-yl)-4-(3-methylmorpholino)-8-(pyrrolidin-1-yl)quinazolin-6-yl)-2-fluorophenyl)-3-fluoropropane-1-sulfonamide] | 100 to 1000 nM | 1 to 100 nM
12 | COc1cc(-c2c(Cl)ccc(NS(=O)(=O)CCCF)c2F)cc2c(N3CCOCC3)nc(-c3ccc(N)nc3)nc12 [Example 85, N-(3-(2-(6-aminopyridin-3-yl)-8-methoxy-4-morpholinoquinazolin-6-yl)-4-chloro-2-fluorophenyl)-3-fluoropropane-1-sulfonamide] | 100 to 1000 nM | 1 to 100 nM
13 | C[C@@H]1COCCN1c1nc(-c2cnc(N)nc2)nc2c(OCCF)cc(-c3cccc(NS(=O)(=O)CCCF)c3F)cc12 [Example 141, (R)-N-(3-(2-(2-aminopyrimidin-5-yl)-8-(2-fluoroethoxy)-4-(3-methylmorpholino)quinazolin-6-yl)-2-fluorophenyl)-3-fluoropropane-1-sulfonamide] | 100 to 1000 nM | 1 to 100 nM
14 | CCOc1cc(-c2cccc(NS(=O)(=O)CCCF)c2F)cc2c(N3CCOC[C@H]3C)nc(-c3cnc4[nH]ccc4c3)nc12 [Example 61, (R)-N-(3-(8-ethoxy-4-(3-methylmorphollno)-2-(1H-pyrrolo[2,3-b]pyridin-5-yl)quinazolin-6-yl)-2-fluorophenyl)-3-fluoropropane-1-sulfonamide] | 100 to 1000 nM | 1 to 100 nM
15 | CCCCS(=O)(=O)Nc1cccc(-c2cc(OC)c3nc(-c4cnc(N)nc4)nc(N4CCOCC4)c3c2)c1F [Example 23, N-(3-(2-(2-aminopyrimidin-5-yl)-8-methoxy-4-morpholinoquinazolin-6-yl)-2-fluorophenyl)butane-1-sulfonamide] | 100 to 1000 nM | 100 to 1000 nM

Continued, values first:

Row | IC50 (mTOR kinase) | IC50 (B-RAFV600E) | Compound
16 | 100 to 1000 nM | 1 to 100 nM | CCOc1cc(-c2cccc(NS(=O)(=O)CCCF)c2F)cc2c(N3CCOC[C@H]3C)nc(-c3cnc(NC)nc3)nc12 [Example 138, (R)-N-(3-(8-ethoxy-2-(2-(methylamino)pyrimidin-5-yl)-4-(3-methylmorpholino)quinazolin-6-yl)-2-fluorophenyl)-3-fluoropropane-1-sulfonamide]
17 | 1 to 100 nM | 100 to 1000 nM | Nc1ccc(-c2nc(N3CCOCC3)c3cc(-c4cccc(NS(=O)(=O)CCCF)c4F)cc(OCC(=O)O)c3n2)cn1 [Example 59, 2-((2-(6-aminopyridin-3-yl)-6-(2-fluoro-3-(3-fluoropropylsulfonamido)phenyl)-4-morpholino-quinazolin-8-yl)oxy)acetic acid 2,2,2-trifluoroacetate]
18 | 1 to 100 nM | 1 to 100 nM | C[C@@H]1COCCN1c1nc(-c2ccc(N)nc2)nc2c(N3CCOCC3)cc(-c3cccc(NS(=O)(=O)CCCF)c3F)cc12 [Example 72, (R)-N-(3-(2-(6-aminopyridin-3-yl)-4-(3-methylmorpholino)-8-morpholinoquinazolin-6-yl)-2-fluorophenyl)-3-fluoropropane-1-sulfonamide]
19 | 100 to 1000 nM | 1 to 100 nM | CCOc1cc(-c2cccc(NS(=O)(=O)CCCF)c2F)cc2c(N3CCOC[C@@H]3C)nc(-c3cnc(N)nc3)nc12 [Example 66]
20 | 100 to 1000 nM | 1 to 100 nM | COCCNc1ccc(-c2nc(N3CCOCC3)c3nc(-c4cccc(NS(=O)(=O)CCCF)c4F)ccc3n2)cn1 [Example 133, 3-fluoro-N-(2-fluoro-3-(2-(6-((2-methoxyethyl)amino)pyridin-3-yl)-4-morpholinopyrido[3,2-d]pyrimidin-6-yl)phenyl)propane-1-sulfonamide]
21 | 1 to 100 nM | 100 to 1000 nM | CCCS(=O)(=O)Nc1cccc(-c2cc(OC)c3nc(-c4ccc(NC(=O)Nc5ccncc5)cc4)nc(N4CCOCC4)c3c2)c1F [Example 34, N-(2-fluoro-3-(8-methoxy-4-morpholino-2-(4-(3-(pyridin-4-yl)ureido)phenyl)quinazolin-6-yl)phenyl) propane-1-sulfonamide]
